Measurements from paper PMC12775802, “Dual targeting of AMRC12 and Malassezia globosa disrupts MYC liquid condensates-driven nuclear pore complex biogenesis in neuroblastoma” (Theranostics, 2026).

Biological target: ARMC12 (Homo sapiens, UniProt Q5T9G4)
Settings: recombinant wild-type protein; 20 uM (Figure 4F legend; b48 prints 20 mM); 4 °C, 2 h; compound covalently conjugated to beads; site at R320

ARMC12, sequence (Q5T9G4 1-367 isoform Q5T9G4-2): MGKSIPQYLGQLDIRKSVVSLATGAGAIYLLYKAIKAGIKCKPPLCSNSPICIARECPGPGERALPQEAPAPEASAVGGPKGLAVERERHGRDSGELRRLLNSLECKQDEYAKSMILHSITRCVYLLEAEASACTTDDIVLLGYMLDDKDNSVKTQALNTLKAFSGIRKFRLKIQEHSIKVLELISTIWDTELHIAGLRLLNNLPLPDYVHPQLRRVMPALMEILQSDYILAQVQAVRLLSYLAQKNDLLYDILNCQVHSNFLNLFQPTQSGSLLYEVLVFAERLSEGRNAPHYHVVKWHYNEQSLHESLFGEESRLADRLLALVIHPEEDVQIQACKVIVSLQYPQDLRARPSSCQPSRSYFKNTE

SMILES: Clc1ccc(C(Cn2ccnc2)OCc2ccsc2Cl)c(Cl)c1 (stereo not shown) [TCZ, tioconazole]
- affinity purification on compound-conjugated NHS beads, western blot: TCZ directly interacted with recombinant wild-type ARMC12 protein rather than its mutant
